These results are taken from patent US8912202B2, “N-(benzimimdazol-2-yl)-cyclopropane carboxamides as lysophosphatidic acid antagonists” (Merck Patent GmbH, priority 2011, dated 2014).

The structures appear in SMILES notation. Bounds are passed on as bounds.

The target of the assay is T1, LPA2R (Homo sapiens, UniProt Q9HBW0).
T1 construct: expressed in transfected cells; host or cells: U2OS
T1 sequence (Q9HBW0 whole entry): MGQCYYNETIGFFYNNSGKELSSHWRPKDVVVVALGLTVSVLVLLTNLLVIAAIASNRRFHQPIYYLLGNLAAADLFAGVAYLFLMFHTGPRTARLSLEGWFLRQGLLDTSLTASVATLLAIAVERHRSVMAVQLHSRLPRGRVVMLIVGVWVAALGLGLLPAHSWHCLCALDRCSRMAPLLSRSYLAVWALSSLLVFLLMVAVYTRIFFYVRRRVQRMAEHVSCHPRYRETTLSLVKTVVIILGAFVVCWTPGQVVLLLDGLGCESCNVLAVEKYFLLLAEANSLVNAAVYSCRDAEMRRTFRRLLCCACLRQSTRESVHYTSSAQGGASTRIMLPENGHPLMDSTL
In words: LPA2R-Calciumflux assay (FLIPR, intracellular calcium mobilisation after LPA). The assay is classed as cell-based. Conditions: U2OS cells recombinant expressing LPA2R; antagonism of LPA-induced calcium flux; racemate of the two trans enantiomers unless marked enantiomer. The text has this: The assay detects intra cellular calcium which is generated by cells upon activation of the LPA2 receptor by its ligand LPA. This transient calcium mobilization can be monitored using a commercial calcium detection kit (e.g. from Molecular Devices). The main component of such a kit is a dye, which becomes fluorescent when calcium is present—a transient fluorescence signal after addition of a ligand to a test well are the result. Readers like the FLIPR (Molecular Devices) can be used to monitor such transient “Ca-flux” signals.
The signals are calculated according to peak maximum minus base line.
Compounds which are antagonists of LPA lead to a decreased mobilisation of intracellular calcium and thus to a lower signal. The assay is performed in microplates (384 wells per plate).
LPA2R-Calciumflux Assay Protocol
The assay is run according to the following procedure:
50 uL seed cells (10000 cells/well in DMEM buffer)
• Incubate 24 h at 37° C., 10% CO2 • aspirate medium 50 uL add calcium dye 1×HBSS/HEPES buffer • incubate 1 h at 37° C. (“loading”) • equilibrate 10 min at RT 5 uL add compounds in HEPES buffer • shake 10 sec. at 1000 rpm • incubate 15 min at RT 20 uL add LPA (in the FLIPR Tetra) in Krebs-buffer/BSA & measurement
The cells are seeded in DMEM buffer (DMEM, 10% FCS, 10 mM HEPES, 1% Pen/Strep).
Dye loading is done in HBSS/HEPES buffer (100 mL 10×HBSS+20 mL 1M HEPES+880 mL water, pH 7.4)
The LPA is added in Krebs/BSA buffer (120 mM NaCl, 5 mM KCl, 0.62 mM MgSO4, 1.8 mM CaCl2, 10 mM HEPES, 6 mM D(+)-Glucose, 0.2% BSA, pH 7.4).
The compounds are pre-diluted in HEPES buffer (20 mM, pH 7.4), whereby the final DMSO content in the assay is kept at 1%. The compounds are pre-diluted in order to generate dose response series on the microplates. The dose response series consist of 10 concentrations for each compound from 30 uM final to 1 nM final. From all compound wells the resulting signals are referred to control wells (located on each plate besides the compound wells) in terms of % activity.
From these % activity values—along with the corresponding compound concentrations—IC50 values are fitted for each compound using standard fitting programs such as Graphpad Prism. Here the method “log(inhibitor) vs. response—Variable slope” is used.
(A change in cytosolic calcium serves as a functional read-out for many receptors and channels.)
Turning to `O=C(OCc1ccccc1)C1CCN(CNc2cccc3[nH]c(NC(=O)C4CC4c4ccccc4)nc23)C1` (racemic) [1-({2-[(2-Phenyl-cyclopropane-carbonyl)-amino]-1H-benzoimidazol-4-ylamino)-methyl)-pyrrolidine-3-carboxylic acid benzyl ester], the IC50 is 1000 to 10000 nM.

As for `O=C(Nc1nc2ccccc2[nH]1)C1C(c2ccccc2)C1(F)F` (racemic) [2,2-Difluoro-3-phenyl-cyclopropane-carboxylic acid (1H-benzoimidazol-2-yl)-amide], the IC50 fell in the range of 100 to 1000 nM.

`O=C(Nc1nc2ccc(Cl)cc2[nH]1)C1C(c2ccccc2)C1(F)F` (racemic) [2,2-Difluoro-3-phenyl-cyclopropane-carboxylic acid (6-chloro-1H-benzoimidazol-2-yl)-amide]: the IC50 was in the range of 10 to 100 nM.

As to `N#Cc1ccc2nc(NC(=O)C3C(c4ccccc4)C3(F)F)[nH]c2c1` (racemic) [2,2-Difluoro-3-phenyl-cyclopropane-carboxylic acid (6-cyano-1H-benzoimidazol-2-yl)-amide], the IC50 was 100 to 1000 nM.

Turning to `O=C(Nc1nc2ccc(C(F)(F)F)cc2[nH]1)C1C(c2ccccc2)C1(F)F` (racemic) [2,2-Difluoro-3-phenyl-cyclopropane-carboxylic acid (6-trifluoromethyl-1H-benzoimidazol-2-yl)-amide], the IC50 was 100 to 1000 nM.

Take `CC1(C)C(C(=O)Nc2nc3ccccc3[nH]2)C1c1ccccc1` (racemic) [2,2-Dimethyl-3-phenyl-cyclopropane-carboxylic acid (1H-benzoimidazol-2-yl)-amide]: the IC50 is above 10000 nM.

Consider `CC1(C)C(C(=O)Nc2nc3ccc(Cl)cc3[nH]2)C1c1ccccc1` (racemic) [2,2-Dimethyl-3-phenyl-cyclopropane-carboxylic acid (6-chloro-1H-benzoimidazol-2-yl)-amide], for which the IC50 was above 10000 nM.

Take `CC1(C)C(C(=O)Nc2nc3ccc(C#N)cc3[nH]2)C1c1ccccc1` (racemic) [2,2-Dimethyl-3-phenyl-cyclopropane-carboxylic acid (6-cyano-1H-benzoimidazol-2-yl)-amide]: the IC50 is above 10000 nM.

With `CC1(C)C(C(=O)Nc2nc3ccc(C(F)(F)F)cc3[nH]2)C1c1ccccc1` (racemic) [2,2-Dimethyl-3-phenyl-cyclopropane-carboxylic acid (6-trifluoromethyl-1H-benzoimidazol-2-yl)-amide], the half-inhibitory concentration (IC50) was above 10000 nM.

As to `O=C(Nc1nc2ccccc2[nH]1)C1CC1c1cccc(Cl)c1Cl` (racemic) [2-(2,3-Dichloro-phenyl)-cyclopropane-carboxylic acid (1H-benzoimidazol-2-yl)-amide], the IC50 fell in the range of 100 to 1000 nM.

With `O=C(Nc1nc2ccccc2[nH]1)C1CC1c1c(Cl)cccc1Cl` (racemic) [2-(2,6-Dichloro-phenyl)-cyclopropane-carboxylic acid (1H-benzoimidazol-2-yl)-amide], the IC50 is above 10000 nM.

As to `O=C(Nc1nc2ccccc2[nH]1)C1CC1c1ccccc1Cl` (racemic) [2-(2-Chloro-phenyl)-cyclopropane-carboxylic acid (1H-benzoimidazol-2-yl)-amide], the IC50 fell in the range of 10 to 100 nM.

For `N#Cc1ccc2nc(NC(=O)C3CC3c3ccccc3Cl)[nH]c2c1` (racemic) [2-(2-Chloro-phenyl)-cyclopropane-carboxylic acid (6-cyano-1H-benzoimidazol-2-yl)-amide], the IC50 lay in the range of 10 to 100 nM.

As to `O=C(Nc1nc2ccc(C(F)(F)F)cc2[nH]1)C1CC1c1ccccc1Cl` (racemic) [2-(2-Chloro-phenyl)-cyclopropane-carboxylic acid (6-trifluoromethyl-1H-benzoimidazol-2-yl)-amide], the IC50 fell in the range of 10 to 100 nM.

With `CN(C)c1ccccc1C1CC1C(=O)Nc1nc2ccccc2[nH]1` (racemic) [2-(2-Dimethylamino-phenyl)-cyclopropane-carboxylic acid (1H-benzoimidazol-2-yl)-amide], the 50% inhibitory concentration (IC50) is 100 to 1000 nM.

As for `O=C(Nc1nc2ccccc2[nH]1)C1CC1c1ccccc1F` (racemic) [2-(2-Fluoro-phenyl)-cyclopropane-carboxylic acid (1H-benzoimidazol-2-yl)-amide], the IC50 lay within 100 to 1000 nM.

On to `O=C(Nc1nc2ccccc2[nH]1)C1CC1c1ccccc1C(F)(F)F` (racemic) [2-(2-Trifluoromethyl-phenyl)-cyclopropane-carboxylic acid (1H-benzoimidazol-2-yl)-amide], for which the half-maximal inhibitory concentration (IC50) was above 10000 nM.

`O=C(Nc1nc2ccccc2[nH]1)C1CC1c1cccc(Br)c1` (racemic) [2-(3-Bromo-phenyl)-cyclopropane-carboxylic acid (1H-benzoimidazol-2-yl)-amide]: the IC50 was 10 to 100 nM.

For the molecule `O=C(Nc1nc2ccccc2[nH]1)C1CC1c1cccc(Cl)c1` (racemic) [2-(3-Chloro-phenyl)-cyclopropane-carboxylic acid (1H-benzoimidazol-2-yl)-amide], the IC50 lay within 100 to 1000 nM.

Take `N#Cc1cccc(C2CC2C(=O)Nc2nc3ccccc3[nH]2)c1` (racemic) [2-(3-Cyano-phenyl)-cyclopropane-carboxylic acid (1H-benzoimidazol-2-yl)-amide]: the IC50 lay in the range of 100 to 1000 nM.

Turning to `CN(C)c1cccc(C2CC2C(=O)Nc2nc3ccccc3[nH]2)c1` (racemic) [2-(3-Dimethylamino-phenyl)-cyclopropane-carboxylic acid (1H-benzoimidazol-2-yl)-amide], the IC50 fell in the range of 100 to 1000 nM.

As for `O=C(Nc1nc2ccccc2[nH]1)C1CC1c1cccc(F)c1` (racemic) [2-(3-Fluoro-phenyl)-cyclopropane-carboxylic acid (1H-benzoimidazol-2-yl)-amide], the IC50 lay within 10 to 100 nM.

With `O=C(Nc1nc2cc(Cl)cnc2[nH]1)C1CC1c1cccc(F)c1` (racemic) [2-(3-Fluoro-phenyl)-cyclopropane-carboxylic acid (6-chloro-3H-imidazo[4,5-b]pyridin-2-yl)-amide], the IC50 is below 10 nM.

For `N#Cc1ccc2nc(NC(=O)C3CC3c3cccc(F)c3)[nH]c2c1` (racemic) [2-(3-Fluoro-phenyl)-cyclopropane-carboxylic acid (6-cyano-1H-benzoimidazol-2-yl)-amide], the half-inhibitory concentration (IC50) was below 10 nM.

Consider `COc1cccc(C2CC2C(=O)Nc2nc3ccccc3[nH]2)c1` (racemic) [2-(3-Methoxy-phenyl)-cyclopropane-carboxylic acid (1H-benzoimidazol-2-yl)-amide], for which the IC50 was above 10000 nM.

With `O=C(Nc1nc2ccccc2[nH]1)C1CC1c1cccc([N+](=O)[O-])c1` (racemic) [2-(3-Nitro-phenyl)-cyclopropane-carboxylic acid (1H-benzoimidazol-2-yl)-amide], the IC50 fell in the range of 10 to 100 nM.

As for `O=C(Nc1nc2ccccc2[nH]1)C1CC1c1ccc(Cl)cc1` (racemic) [2-(4-Chloro-phenyl)-cyclopropane-carboxylic acid (1H-benzoimidazol-2-yl)-amide], the IC50 is above 10000 nM.

For the molecule `CN(C)c1ccc(C2CC2C(=O)Nc2nc3ccccc3[nH]2)cc1` (racemic) [2-(4-Dimethylamino-phenyl)-cyclopropane-carboxylic acid (1H-benzoimidazol-2-yl)-amide], the IC50 fell in the range of 1000 to 10000 nM.

For `O=C(Nc1nc2ccccc2[nH]1)C1CC1c1ccc(F)cc1` (racemic) [2-(4-Fluoro-phenyl)-cyclopropane-carboxylic acid (1H-benzoimidazol-2-yl)-amide], the IC50 was 10 to 100 nM.

In the case of `COc1ccc(C2CC2C(=O)Nc2nc3ccccc3[nH]2)cc1` (racemic) [2-(4-Methoxy-phenyl)-cyclopropane-carboxylic acid (1H-benzoimidazol-2-yl)-amide], the IC50 is 1000 to 10000 nM.

Regarding `O=C(Nc1nc2ccccc2[nH]1)C1CC1c1ccc(C(F)(F)F)cc1` (racemic) [2-(4-Trifluoromethyl-phenyl)-cyclopropane-carboxylic acid (1H-benzoimidazol-2-yl)-amide], the IC50 was in the range of 1000 to 10000 nM.

`CC(C)(C)c1ccc(C2CC2C(=O)Nc2nc3ccccc3[nH]2)cc1` (racemic) [2-(4-tert-Butyl-phenyl)-cyclopropane-carboxylic acid (1H-benzoimidazol-2-yl)-amide]: the IC50 was above 10000 nM.

For `O=C(Nc1nc2ccccc2[nH]1)C1CC1c1cc(Br)ccc1F` (racemic) [2-(5-Bromo-2-fluoro-phenyl)-cyclopropane-carboxylic acid (1H-benzoimidazol-2-yl)-amide], the half-inhibitory concentration (IC50) is 10 to 100 nM.

As to `Cn1c(NC(=O)C2CC2c2ccccc2)nc2ccccc21` (racemic) [2-Phenyl-cyclopropane-carboxylic acid (1-methyl-1H-benzoimidazol-2-yl)-amide], the IC50 is above 10000 nM.

Broadly, the IC50 is the concentration at which inhibition is half-maximal.
